The kinase profiling compilation of Christmann-Franck et al. (2016)

Experiments:
Assay in all cases: radiometric filter-binding kinase assay, Kinaseprofiler
[1] = tested on: MAPKAPK2 (human), P49137 [A399G]; settings: ATP 90 µM
[2] = tested on: MERTK (human), Q12866 [H628Q/R794A]; settings: ATP 45 µM
[3] = tested on: AURKA (human), O14965 [I31F]; settings: ATP 15 µM
[4] = tested on: MARK1 (human), Q9P0L2 [V16E/T20S]; settings: ATP 10 µM
[5] = tested on: TEC (human), P42680 [F514V]; settings: ATP 120 µM
[6] = tested on: AKT2 (human), P31751 [S474D]; settings: ATP 200 µM
[7] = tested on: RAF1 (human), P04049 [Y340D/Y341D]; settings: ATP 45 µM
[8] = tested on: PRKCH (human), P24723 [V108L/G109R/L392Q]; settings: ATP 45 µM
Sequence of PRKCH (human), P24723 [V108L/G109R/L392Q] (P24723 whole entry, looked up, stated change not applied): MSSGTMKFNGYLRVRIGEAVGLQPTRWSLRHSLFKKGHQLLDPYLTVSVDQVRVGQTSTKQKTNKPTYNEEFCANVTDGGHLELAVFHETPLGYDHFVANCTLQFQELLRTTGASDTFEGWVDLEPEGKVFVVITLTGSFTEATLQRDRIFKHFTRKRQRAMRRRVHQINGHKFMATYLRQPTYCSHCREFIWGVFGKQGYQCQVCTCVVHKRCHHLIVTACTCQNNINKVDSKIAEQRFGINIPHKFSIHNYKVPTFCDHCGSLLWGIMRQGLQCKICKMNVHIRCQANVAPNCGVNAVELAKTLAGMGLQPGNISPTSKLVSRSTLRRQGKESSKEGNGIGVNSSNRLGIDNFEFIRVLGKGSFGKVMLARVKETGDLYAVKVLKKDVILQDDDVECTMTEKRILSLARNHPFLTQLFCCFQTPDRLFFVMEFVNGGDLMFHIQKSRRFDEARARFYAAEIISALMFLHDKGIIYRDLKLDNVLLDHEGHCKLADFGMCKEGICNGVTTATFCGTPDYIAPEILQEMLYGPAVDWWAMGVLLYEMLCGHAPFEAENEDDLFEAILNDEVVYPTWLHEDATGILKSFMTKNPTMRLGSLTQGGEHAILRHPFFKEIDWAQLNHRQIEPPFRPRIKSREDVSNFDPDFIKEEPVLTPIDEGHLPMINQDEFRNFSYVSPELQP

Sequence of MAPKAPK2 (human), P49137 [A399G] (P49137 whole entry A399G, looked up): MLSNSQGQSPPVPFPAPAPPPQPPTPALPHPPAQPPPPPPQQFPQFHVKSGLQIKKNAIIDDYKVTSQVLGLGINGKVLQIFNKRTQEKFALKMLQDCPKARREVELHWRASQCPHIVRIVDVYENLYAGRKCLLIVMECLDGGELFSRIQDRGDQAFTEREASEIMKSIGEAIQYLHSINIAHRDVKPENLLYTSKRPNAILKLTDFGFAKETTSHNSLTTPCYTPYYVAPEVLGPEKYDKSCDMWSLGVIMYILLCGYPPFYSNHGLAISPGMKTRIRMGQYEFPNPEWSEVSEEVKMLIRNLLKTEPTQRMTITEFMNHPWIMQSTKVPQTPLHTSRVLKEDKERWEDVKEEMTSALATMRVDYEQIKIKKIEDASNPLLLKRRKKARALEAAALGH
Sequence of MERTK (human), Q12866 [H628Q/R794A] (Q12866 whole entry, looked up, stated change not applied): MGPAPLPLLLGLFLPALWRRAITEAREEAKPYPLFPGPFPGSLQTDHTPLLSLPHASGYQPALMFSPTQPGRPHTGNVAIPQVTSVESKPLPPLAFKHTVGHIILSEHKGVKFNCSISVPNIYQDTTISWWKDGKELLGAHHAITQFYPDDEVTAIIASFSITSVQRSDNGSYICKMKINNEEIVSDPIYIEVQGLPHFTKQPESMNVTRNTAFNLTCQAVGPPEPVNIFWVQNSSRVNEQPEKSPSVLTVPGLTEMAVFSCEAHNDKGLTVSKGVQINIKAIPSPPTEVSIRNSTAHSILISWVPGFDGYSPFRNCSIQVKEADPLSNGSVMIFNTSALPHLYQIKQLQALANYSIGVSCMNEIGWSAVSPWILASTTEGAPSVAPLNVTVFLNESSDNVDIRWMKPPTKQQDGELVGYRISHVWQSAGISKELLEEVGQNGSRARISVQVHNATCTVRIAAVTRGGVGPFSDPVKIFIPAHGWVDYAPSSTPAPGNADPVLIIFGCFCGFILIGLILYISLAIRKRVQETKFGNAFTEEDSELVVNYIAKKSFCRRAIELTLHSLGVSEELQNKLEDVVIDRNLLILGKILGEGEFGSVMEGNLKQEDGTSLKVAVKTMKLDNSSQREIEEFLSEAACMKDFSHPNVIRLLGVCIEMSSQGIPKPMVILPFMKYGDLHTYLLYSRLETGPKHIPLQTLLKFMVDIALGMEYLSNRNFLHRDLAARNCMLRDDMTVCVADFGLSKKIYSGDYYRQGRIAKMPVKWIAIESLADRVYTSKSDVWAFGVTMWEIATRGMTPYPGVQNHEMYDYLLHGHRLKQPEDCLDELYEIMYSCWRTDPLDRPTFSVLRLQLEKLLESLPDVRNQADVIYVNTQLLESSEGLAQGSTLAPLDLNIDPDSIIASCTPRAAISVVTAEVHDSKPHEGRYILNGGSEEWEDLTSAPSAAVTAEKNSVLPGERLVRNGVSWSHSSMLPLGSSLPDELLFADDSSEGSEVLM
Sequence of AKT2 (human), P31751 [S474D] (P31751 whole entry S474D, looked up): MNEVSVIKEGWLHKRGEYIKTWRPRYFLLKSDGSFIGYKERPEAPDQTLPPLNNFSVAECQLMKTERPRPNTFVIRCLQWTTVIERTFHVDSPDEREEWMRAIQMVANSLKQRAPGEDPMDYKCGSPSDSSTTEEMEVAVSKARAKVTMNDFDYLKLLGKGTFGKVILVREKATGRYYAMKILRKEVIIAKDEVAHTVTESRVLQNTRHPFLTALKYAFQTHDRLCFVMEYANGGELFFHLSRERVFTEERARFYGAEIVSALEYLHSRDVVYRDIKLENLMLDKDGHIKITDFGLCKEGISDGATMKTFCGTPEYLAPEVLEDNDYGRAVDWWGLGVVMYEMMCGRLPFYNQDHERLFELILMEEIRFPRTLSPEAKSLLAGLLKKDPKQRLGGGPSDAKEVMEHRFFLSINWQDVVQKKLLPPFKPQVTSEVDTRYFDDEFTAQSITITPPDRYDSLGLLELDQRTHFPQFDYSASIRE
Sequence of AURKA (human), O14965 [I31F] (O14965 whole entry, looked up, stated change not applied): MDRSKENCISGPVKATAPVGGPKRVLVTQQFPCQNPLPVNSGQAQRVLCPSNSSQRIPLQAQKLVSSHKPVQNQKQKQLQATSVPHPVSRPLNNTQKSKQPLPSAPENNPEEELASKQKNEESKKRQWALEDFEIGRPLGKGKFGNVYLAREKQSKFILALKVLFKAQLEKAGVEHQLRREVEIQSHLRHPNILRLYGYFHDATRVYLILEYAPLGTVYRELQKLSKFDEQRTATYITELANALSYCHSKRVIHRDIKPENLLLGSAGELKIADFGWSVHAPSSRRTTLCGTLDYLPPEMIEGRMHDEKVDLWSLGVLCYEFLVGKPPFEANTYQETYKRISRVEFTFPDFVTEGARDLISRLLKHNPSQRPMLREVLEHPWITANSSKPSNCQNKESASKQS
Sequence of TEC (human), P42680 [F514V] (P42680 whole entry, looked up, stated change not applied): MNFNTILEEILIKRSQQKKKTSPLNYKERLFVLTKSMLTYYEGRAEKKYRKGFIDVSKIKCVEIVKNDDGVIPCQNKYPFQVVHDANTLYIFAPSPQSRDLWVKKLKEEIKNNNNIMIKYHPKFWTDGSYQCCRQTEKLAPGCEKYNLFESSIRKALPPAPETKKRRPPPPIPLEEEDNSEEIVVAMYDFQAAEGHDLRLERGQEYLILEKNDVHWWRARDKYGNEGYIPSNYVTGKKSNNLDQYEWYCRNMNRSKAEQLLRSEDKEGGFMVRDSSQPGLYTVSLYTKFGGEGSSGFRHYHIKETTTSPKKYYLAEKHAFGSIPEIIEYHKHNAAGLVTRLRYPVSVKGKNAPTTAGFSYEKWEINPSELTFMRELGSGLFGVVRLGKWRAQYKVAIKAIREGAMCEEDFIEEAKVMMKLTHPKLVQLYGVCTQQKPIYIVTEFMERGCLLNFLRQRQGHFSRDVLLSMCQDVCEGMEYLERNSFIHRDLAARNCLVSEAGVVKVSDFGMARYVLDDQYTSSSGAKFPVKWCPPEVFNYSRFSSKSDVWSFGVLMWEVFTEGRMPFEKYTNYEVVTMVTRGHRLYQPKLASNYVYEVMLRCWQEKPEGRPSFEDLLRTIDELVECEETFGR
Sequence of MARK1 (human), Q9P0L2 [V16E/T20S] (Q9P0L2 whole entry, looked up, stated change not applied): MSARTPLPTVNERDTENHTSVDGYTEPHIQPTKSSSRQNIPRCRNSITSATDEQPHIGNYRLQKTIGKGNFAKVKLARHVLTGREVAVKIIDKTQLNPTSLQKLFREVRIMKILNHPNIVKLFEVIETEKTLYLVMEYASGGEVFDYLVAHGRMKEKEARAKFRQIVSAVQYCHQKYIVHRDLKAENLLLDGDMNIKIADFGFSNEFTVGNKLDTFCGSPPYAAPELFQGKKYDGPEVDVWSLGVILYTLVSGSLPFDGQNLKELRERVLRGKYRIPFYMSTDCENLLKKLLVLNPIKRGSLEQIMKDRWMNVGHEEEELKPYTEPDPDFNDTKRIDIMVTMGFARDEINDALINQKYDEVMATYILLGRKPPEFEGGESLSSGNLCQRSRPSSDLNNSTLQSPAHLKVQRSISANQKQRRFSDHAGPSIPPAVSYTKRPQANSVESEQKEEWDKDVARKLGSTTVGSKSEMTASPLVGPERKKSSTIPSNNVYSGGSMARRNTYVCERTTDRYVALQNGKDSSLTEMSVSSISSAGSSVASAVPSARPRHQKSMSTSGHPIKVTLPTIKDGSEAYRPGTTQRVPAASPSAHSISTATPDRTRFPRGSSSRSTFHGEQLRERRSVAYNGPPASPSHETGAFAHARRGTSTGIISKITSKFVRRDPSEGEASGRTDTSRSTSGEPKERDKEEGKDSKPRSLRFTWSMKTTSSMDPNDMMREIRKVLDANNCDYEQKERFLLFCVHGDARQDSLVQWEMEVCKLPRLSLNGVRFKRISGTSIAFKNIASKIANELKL

| residual activity ([1]; compound 1.0 µM) [%] | residual activity ([1]; compound 10.0 µM) [%] | residual activity ([2]; compound 1.0 µM) [%] | residual activity ([3]; compound 1.0 µM) [%] | residual activity ([3]; compound 10.0 µM) [%] | residual activity ([4]; compound 10.0 µM) [%] | residual activity ([5]; compound 1.0 µM) [%] | residual activity ([5]; compound 10.0 µM) [%] | residual activity ([6]; compound 1.0 µM) [%] | residual activity ([6]; compound 10.0 µM) [%] | residual activity ([7]; compound 1.0 µM) [%] | residual activity ([7]; compound 10.0 µM) [%] | residual activity ([8]; compound 1.0 µM) [%] | residual activity ([8]; compound 10.0 µM) [%] | SMILES | residual activity ([2]; compound 10.0 µM) [%] | residual activity ([4]; compound 1.0 µM) [%] |
| --- | --- | --- | --- | --- | --- | --- | --- | --- | --- | --- | --- | --- | --- | --- | --- | --- |
| 79 | 69 | 22 | 19 | 2 | 6 | 89 | 57 | 104 | 105 | 69 | 61 | 86 | 82 | O=C1c2ccccc2-c2n[nH]c3cccc1c23 | 9 | 38 |
| 101 | 76 | -2 | 7 | 0 | 5 | 64 | 22 | 98 | 92 | 89 | 66 | 91 | 83 | O=C1Nc2ccccc2/C1=C1\Nc2ccccc2\C1=N/O | -3 | 37 |

| SMILES | residual activity ([1]; compound 1.0 µM) [%] | residual activity ([1]; compound 10.0 µM) [%] | residual activity ([2]; compound 1.0 µM) [%] | residual activity ([3]; compound 1.0 µM) [%] | residual activity ([3]; compound 10.0 µM) [%] | residual activity ([4]; compound 10.0 µM) [%] | residual activity ([5]; compound 1.0 µM) [%] | residual activity ([5]; compound 10.0 µM) [%] | residual activity ([6]; compound 1.0 µM) [%] | residual activity ([6]; compound 10.0 µM) [%] | residual activity ([7]; compound 1.0 µM) [%] | residual activity ([7]; compound 10.0 µM) [%] | residual activity ([8]; compound 1.0 µM) [%] | residual activity ([8]; compound 10.0 µM) [%] | residual activity ([2]; compound 10.0 µM) [%] | residual activity ([4]; compound 1.0 µM) [%] |
| --- | --- | --- | --- | --- | --- | --- | --- | --- | --- | --- | --- | --- | --- | --- | --- | --- |
| CN[C@@H]1C[C@H]2O[C@@](C)([C@@H]1OC)n1c3ccccc3c3c4c(c5c6ccccc6n2c5c31)C(=O)NC4 |  |  |  |  |  |  |  |  |  |  |  | 80 |  |  | 0 | 0 |
| COC(=O)[C@]1(O)C[C@@H]2O[C@@]1(C)n1c3ccccc3c3c4c(c5c6ccccc6n2c5c31)C(=O)NC4 | 0 | -6 |  |  | -1 | 0 |  |  |  |  |  |  |  |  | 0 | 0 |
